This note sets out measurements from US6710048B2, “Pyrazine derivatives as modulators of tyrosine kinases” (Ortho-McNeil Pharmaceutical, Inc., priority 2000, dated 2004).

Holding throughout (format): biochemical
The target in experiment [1] is T1, Casein Kinase 1 (Rattus norvegicus, UniProt Q06486).
T1 construct: a truncation at amino acid 318 of the C-terminal portion of the rat CK1 delta isoform produced in E.coli; purchased New England Biolabs 6030; host or cells: E. coli
T1 sequence (Q06486 1-317 limits assumed): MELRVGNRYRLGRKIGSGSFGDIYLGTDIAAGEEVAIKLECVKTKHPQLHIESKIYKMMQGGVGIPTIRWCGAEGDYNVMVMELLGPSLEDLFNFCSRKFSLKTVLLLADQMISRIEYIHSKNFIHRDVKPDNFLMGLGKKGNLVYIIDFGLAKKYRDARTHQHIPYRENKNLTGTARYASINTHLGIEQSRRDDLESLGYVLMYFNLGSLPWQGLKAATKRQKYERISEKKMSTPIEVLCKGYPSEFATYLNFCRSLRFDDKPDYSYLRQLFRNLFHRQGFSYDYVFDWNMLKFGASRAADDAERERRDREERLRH
The experiment can be described thus: Casein Kinase 1 selectivity assay. The note with it: Table 4 kinase selectivity; read-out: IC50, Assay 8 Casein Kinase 1. As to the method: (§1) Assays to test compound inhibition of other kinases were preformed using methods that measure the amount of phosphorylation of a biotinylated peptide substrate. Biotinylated peptide substrates were selected from the literature as appropriate for the enzyme being evaluated. […] Assay conditions vary slightly for each protein kinase, for example, insulin receptor kinase requires 10 mM MnCl2 for activity and Calmodulin-dependent protein kinase requires calmodulin and 2 mM CaCl2. The reaction mixture was dispensed into the wells of a streptavidin coated Flashplate and 1 μl drug stock in 100% DMSO was added to a 100 μl reaction volume resulting in a final concentration of 1% DMSO in the reaction. Enzyme was diluted in 50 mM Tris-HCl pH=8.0, 0.1% BSA and added to each well. The reaction was incubated for one hour at 30° C. in the presence of compound. After one hour the reaction mix was aspirated from the plate and the plate was washed with PBS containing 100 mM EDTA. The plate was read on a scintillation counter to determine ^33P-γ-ATP incorporated into the immobilized peptide. Test compounds were assayed in duplicate at 8 concentrations [100 tM, 10 μM, 1 μM, 100 nM, 10 nM, 1 nM, 100 μM, 10 μM]. A maximum and minimum signal for the assay was determined on each plate. The IC50 was calculated from the dose response curve of the percent inhibition of the maximum signal in the assay according to the formula [max signal−background/test compound signal−background (100)=% inhibition] by graphing the percent inhibition against the log concentration of test compound. Known inhibitor compounds appropriate for the kinase being assayed were also included on each plate.
(§2) VEGF-R (vascular endothelial growth factor receptor-2) is a fusion protein containing a polyhistidine tag at the N-terminus followed by amino acids 786-1343 of the rat VEGF-R2 kinase domain (GenBank Accession #U93306). CDK1 (cyclin dependent kinase 1) is isolated from insect cells expressing both the human CDK1 catalytic subunit and its positive regulatory subunit cyclin B (New England Biolabs, Beverly, Mass., Cat. #6020). CDK4 (cyclin dependent kinase 4) contains amino acids 769 to 921 of the mouse […] protein found in the GST-retinoblastoma protein construct (Santa Cruz Biotechnology, Santa Cruz, Calif.; Cat. #SC-4112). Insulin Receptor Kinase consists of residues 941-1313 of the cytoplasmic domain of the beta-subunit of the human insulin receptor (BIOMOL, Plymouth Meeting, Pa., Cat. #SE-195). Protein Kinase A is the catalytic subunit of cAMP dependent protein kinase-A purified from bovine heart (Upstate Biotech, Lake Placid, N.Y., Cat#14-114). PKC (protein kinase-C) is the gamma or beta isoform of the human protein produced in insect cells (BIOMOL, Plymouth Meeting, Pa., Cat. #SE-143). Casein Kinase 1 is a truncation at amino acid 318 of the C-terminal portion of the rat CK1 delta isoform produced in E.coli (New England Biolabs, Beverly, Mass., Cat. #6030). Casein Kinase 2 includes the alpha and beta subunits of the human CK2 protein produced in E.coli (New England Biolabs, Beverly, Mass., Cat. #6010). Calmodulin Kinase (calmodulin-dependent protein kinase 2) is a truncated version of the alpha subunit of the rat protein produced in insect cells (New England Biolabs, Beverly, Mass., Cat. #6060). Glycogen Synthase Kinase-3 is the beta isoform of the rabbit enzyme produced in E. coli (New England Biolabs, Beverly, Mass., Cat. #6040). MAP Kinase is the rat ERK-2 isoform containing a polyhistidine tag at the N-terminus produced in E. coli. and activated by phosphorylation with MEK1 prior to purification (BIOMOL, Plymouth Meeting, Pa., Cat. #SE-137). EGFR (epidermal growth factor receptor) is purified from human A431 cell membranes (Sigma, St. Louis, Mo., Cat.# E3641). PDGF-R (platelet derived growth factor receptor) is a fusion protein containing a polyhistidine tag at the N-terminus followed by nucleotides 1874-3507 of the human PDGF-R beta subunit kinase domain (Accession #M21616). […]

For experiment [2], the target named is T2, Calmodulin Kinase (calmodulin-dependent protein kinase 2) (Rattus norvegicus, UniProt P11275).
T2 construct: a truncated version of the alpha subunit of the rat protein; purchased New England Biolabs 6060; host or cells: insect cells
T2 sequence (P11275 1-325): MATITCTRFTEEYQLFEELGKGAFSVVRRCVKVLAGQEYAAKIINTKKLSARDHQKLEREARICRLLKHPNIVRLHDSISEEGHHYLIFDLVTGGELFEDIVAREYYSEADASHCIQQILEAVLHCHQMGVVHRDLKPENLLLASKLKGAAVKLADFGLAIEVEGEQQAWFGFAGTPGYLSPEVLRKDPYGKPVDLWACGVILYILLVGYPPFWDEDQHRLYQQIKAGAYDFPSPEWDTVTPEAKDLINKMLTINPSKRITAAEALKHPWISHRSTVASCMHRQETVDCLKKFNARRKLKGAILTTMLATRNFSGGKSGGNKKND
The experiment can be described thus: Calmodulin Kinase selectivity assay. The note with it: Table 4 kinase selectivity; read-out: IC50, Assay 10 Calmodulin Kinase.

Experiment [3] concerns the target T3, PKC-β2 (Homo sapiens, UniProt P05771).
T3 construct: purchased BIOMOL SE-143; host or cells: insect cells
The experiment can be described thus: PKC-β2 kinase selectivity assay. As to conditions: Table 4 kinase selectivity; read-out: IC50, Assay 7 PKC-β2. Here is the method: as §1, §2

Experiment [4] concerns the target T4, MAP Kinase ERK-2 (Rattus norvegicus, UniProt P63086).
T4 construct: polyhistidine (N); purchased BIOMOL SE-137; host or cells: E. coli
Nature of the experiment: MAP Kinase ERK-2 selectivity assay. As to conditions: Table 4 kinase selectivity; read-out: IC50, Assay 12 MAP Kinase ERK-2. Here is the method: as §1, §2

Experiment [5] has as its target T5, PKC-γ (Homo sapiens, UniProt P05129).
T5 construct: purchased BIOMOL SE-143; host or cells: insect cells
Nature of the experiment: PKC-γ kinase selectivity assay. As to conditions: Table 4 kinase selectivity; read-out: IC50, Assay 6 PKC-γ. As to the method: as §1, §2

T4 sequence (P63086 whole entry): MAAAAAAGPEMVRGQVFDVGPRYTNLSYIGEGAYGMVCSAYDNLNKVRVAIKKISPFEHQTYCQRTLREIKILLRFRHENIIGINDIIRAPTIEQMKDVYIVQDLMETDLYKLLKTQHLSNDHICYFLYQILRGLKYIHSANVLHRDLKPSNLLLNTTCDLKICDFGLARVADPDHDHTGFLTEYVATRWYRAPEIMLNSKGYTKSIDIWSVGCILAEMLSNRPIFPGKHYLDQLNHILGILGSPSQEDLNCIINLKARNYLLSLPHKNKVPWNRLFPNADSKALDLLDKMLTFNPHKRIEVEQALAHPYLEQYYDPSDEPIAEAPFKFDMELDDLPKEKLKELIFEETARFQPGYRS
T3 sequence (P05771 1-673 isoform P05771-2): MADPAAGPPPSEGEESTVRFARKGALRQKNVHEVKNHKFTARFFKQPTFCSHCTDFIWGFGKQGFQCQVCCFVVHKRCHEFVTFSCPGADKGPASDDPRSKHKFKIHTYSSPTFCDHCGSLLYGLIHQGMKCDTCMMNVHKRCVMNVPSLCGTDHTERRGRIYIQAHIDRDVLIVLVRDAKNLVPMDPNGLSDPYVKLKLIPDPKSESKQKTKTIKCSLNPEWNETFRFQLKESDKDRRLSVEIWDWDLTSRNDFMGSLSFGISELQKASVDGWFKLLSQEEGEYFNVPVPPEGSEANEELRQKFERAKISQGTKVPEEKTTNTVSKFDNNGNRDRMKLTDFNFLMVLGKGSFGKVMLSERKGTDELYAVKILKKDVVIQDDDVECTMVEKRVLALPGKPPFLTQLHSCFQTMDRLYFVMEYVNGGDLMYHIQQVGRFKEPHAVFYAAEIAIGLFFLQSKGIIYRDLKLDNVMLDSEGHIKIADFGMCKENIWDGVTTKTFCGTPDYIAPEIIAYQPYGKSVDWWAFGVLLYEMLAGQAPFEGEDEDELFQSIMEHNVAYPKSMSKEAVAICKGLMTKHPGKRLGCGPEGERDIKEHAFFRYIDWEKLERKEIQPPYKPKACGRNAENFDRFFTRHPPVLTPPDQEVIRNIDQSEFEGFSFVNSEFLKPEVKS

Broadly, the IC50 is the concentration that inhibits the measured activity by half. Take `OCCCNc1cncc(-c2cncc(Nc3cccc(Cl)c3)n2)c1` [Cmd 4]: the IC50 in experiment [1], in experiment [2], in experiment [3], in experiment [4] and in experiment [5] was over 100 µM in each case.

For `OCCCCNc1cncc(-c2cncc(Nc3cccc(Cl)c3)n2)c1` [Cmd 32], the IC50 in experiment [2], in experiment [3], in experiment [4] and in experiment [5] was over 100 µM in each case.

With `CN(C)CCNc1cncc(-c2cncc(Nc3cccc(Cl)c3)n2)c1` [Cmd 33, N′-[5-[6-[(3-chlorophenyl)amino]pyrazinyl]-3-pyridinyl]-N^2,N^2-dimethyl-1,2-ethanediamine], the IC50 in experiment [1] is over 100 µM; in experiment [2] it was over 100 µM; in experiment [3], over 100 µM; in experiment [4], over 100 µM; in experiment [5], 3.96 µM.

Consider `CN(C)CCCNc1cncc(-c2cncc(Nc3cccc(Cl)c3)n2)c1` [Cmd 35], for which the 50% inhibitory concentration (IC50) in experiment [1] was over 100 µM; in experiment [2], over 100 µM; in experiment [3], over 100 µM; in experiment [4], over 100 µM; in experiment [5], 14.5 µM.

For the compound `O=C(NCCCO)c1cncc(-c2cncc(Nc3cccc(Cl)c3)n2)c1` [Cmd 39], the IC50 in experiment [1], in experiment [2], in experiment [3], in experiment [4] and in experiment [5] was over 100 µM each time.

As for `Clc1cccc(Nc2cncc(-c3cncc(NCCCc4ccncc4)c3)n2)c1` [Cmd 71], the half-inhibitory concentration (IC50) in experiment [1] was over 100 µM; in experiment [2], 4.89 µM; in experiment [4] it was over 100 µM.

On to `Clc1cccc(Nc2cncc(-c3cncc(NCCCc4cccnc4)c3)n2)c1` [Cmd 72], for which the half-maximal inhibitory concentration (IC50) in experiment [1], in experiment [2] and in experiment [4] was over 100 µM each time.

Turning to `Clc1cccc(Nc2cncc(-c3cncc(NCCCN4CCCCC4)c3)n2)c1` [Cmd 73], the IC50 in experiment [1] was 5.03 µM; in experiment [2] it was 7.55 µM; in experiment [3] it was 1.75 µM; in experiment [4], over 100 µM; in experiment [5], 1.36 µM.

In the case of `Clc1cccc(Nc2cncc(-c3cncc(NCCCn4cccn4)c3)n2)c1` [Cmd 75], the half-maximal inhibitory concentration (IC50) in experiment [1] was 5.6 µM; in experiment [2], 27 µM; in experiment [4], over 100 µM.

`Clc1cccc(Nc2cncc(-c3cncc(NCCCn4cncn4)c3)n2)c1` [Cmd 76]: the IC50 in experiment [1] is 6.5 µM; in experiment [2], 15.8 µM; in experiment [4], over 100 µM.
